Measured values as given in US5225528A, “Cyclic hexapeptide oxytocin antagonists” (priority 1990, dated 1993).
Read-outs that look alike come from different tables or passages of the source. Numbered stars: 1 amine (or outer) side, 2 acyl side, 3 side chain; on linkers, the order of the positions; unused ones are H or OH. Square brackets hold non-standard residues; d marks the D form. Peptide text beside a SMILES is read from it. * marks the point of attachment. dPip(4-aza,4-Cbz) = O=C(O)[C@H]1CN(C(=O)OCc2ccccc2)CCN1; X2 = O=C(OCc1ccccc1)N1CCN([*:1])[C@H](C(=O)[*:2])C1; dPiz(1,6-dehydro) = O=C(O)[C@H]1CCC=NN1; d2Nal = N[C@H](Cc1ccc2ccccc2c1)C(=O)O; Pip(4-aza) = O=C(O)[C@@H]1CNCCN1; dNMeF = CN[C@H](Cc1ccccc1)C(=O)O; hPhe = N[C@@H](CCc1ccccc1)C(=O)O; Pip = O=C(O)[C@@H]1CCCCN1; dPip = O=C(O)[C@H]1CCCCN1; Orn = NCCC[C@H](N)C(=O)O; dNMeA = CN[C@H](C)C(=O)O; Cbz = O=C(OCc1ccccc1)*; Boc = CC(C)(C)OC(=O)*; OtBu = CC(C)(C)O*

How the values were obtained:
uterine OT receptors = target: T1, uterine OT receptors (Rattus norvegicus, UniProt P70536); assay: [^3 H]OT binding to uterine OT receptors, crude membrane preparation of uteri from DES-treated rats; details: for IC50: rat uterus membranes, 1 nM [^3 H]OT, read-out: Receptor Binding Results IC50 (nM) [^3 H]OT
T1 construct: from tissue; host or cells: uterus of DES-treated rats, crude membranes
T1 sequence (P70536 1-388): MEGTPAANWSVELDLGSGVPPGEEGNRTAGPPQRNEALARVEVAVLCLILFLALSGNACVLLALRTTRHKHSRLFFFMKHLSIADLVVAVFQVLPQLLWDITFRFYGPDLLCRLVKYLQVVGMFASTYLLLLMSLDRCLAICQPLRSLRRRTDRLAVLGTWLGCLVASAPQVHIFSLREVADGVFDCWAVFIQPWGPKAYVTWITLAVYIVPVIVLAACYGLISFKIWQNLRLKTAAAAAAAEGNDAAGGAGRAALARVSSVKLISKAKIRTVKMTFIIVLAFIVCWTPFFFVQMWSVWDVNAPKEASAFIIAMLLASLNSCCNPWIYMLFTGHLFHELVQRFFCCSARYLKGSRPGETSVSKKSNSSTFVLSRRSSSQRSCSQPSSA
Description: Competition studies were conducted at equilibrium (60 minutes; 22° C.) using 1 nM [^3 H]OT in the following assay buffer: 50 mM Tris-HCl, 5 mM MgCl2, and 0.1% BSA, pH 7.4.

AVP-V1 sites = target: T2, AVP-V1 sites (Rattus norvegicus, UniProt P30560); assay: [^3 H]AVP binding to crude membrane preparation of male rat liver (AVP-V1 sites)
T2 construct: crude membrane preparation of male rat liver (AVP-V1 sites); from tissue; host or cells: male rat liver, crude membranes
T2 sequence (P30560 whole entry): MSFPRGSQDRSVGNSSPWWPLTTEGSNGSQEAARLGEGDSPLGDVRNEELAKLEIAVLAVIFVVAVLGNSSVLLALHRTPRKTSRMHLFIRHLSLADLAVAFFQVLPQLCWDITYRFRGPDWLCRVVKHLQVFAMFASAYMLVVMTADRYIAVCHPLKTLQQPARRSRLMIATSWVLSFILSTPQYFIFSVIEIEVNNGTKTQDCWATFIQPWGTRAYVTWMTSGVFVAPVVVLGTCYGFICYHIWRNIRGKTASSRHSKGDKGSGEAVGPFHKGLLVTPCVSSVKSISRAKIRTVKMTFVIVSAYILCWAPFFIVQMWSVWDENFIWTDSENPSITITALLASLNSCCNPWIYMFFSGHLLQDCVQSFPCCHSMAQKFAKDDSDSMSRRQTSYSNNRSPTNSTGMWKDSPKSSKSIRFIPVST
Description: (§1) Nonspecific binding (5-10% of the total binding) was determined using 10 μM unlabeled AVP, and the binding reaction was terminated by filtration as described above for the [^3 H]OT binding assay.

AVP-V2 sites = target: T3, AVP-V2 sites (Rattus norvegicus, UniProt Q00788); assay: [^3 H]AVP binding to crude membrane preparation of male rat kidney medulla (AVP-V2 sites)
T3 construct: male rat liver (AVP-V1 sites) or kidney medulla (AVP-V2 sites); from tissue; host or cells: male rat kidney medulla, crude membranes
T3 sequence (Q00788 whole entry): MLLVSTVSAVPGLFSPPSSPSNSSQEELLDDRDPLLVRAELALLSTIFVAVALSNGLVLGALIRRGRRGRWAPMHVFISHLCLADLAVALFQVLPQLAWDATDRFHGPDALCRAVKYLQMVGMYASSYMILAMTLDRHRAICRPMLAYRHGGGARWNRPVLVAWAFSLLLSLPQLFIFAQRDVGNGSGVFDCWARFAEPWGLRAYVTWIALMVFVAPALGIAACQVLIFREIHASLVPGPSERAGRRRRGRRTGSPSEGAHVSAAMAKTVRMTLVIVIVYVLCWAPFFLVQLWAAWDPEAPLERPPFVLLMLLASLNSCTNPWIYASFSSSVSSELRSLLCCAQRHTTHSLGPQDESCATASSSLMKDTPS
Description: as §1

[1] = Receptor Binding Results IC50 (nM) [^3 H]-AVP-V1
[2] = Receptor Binding Results IC50 (nM) [^3 H]-AVP-V2
[3] = rat kidney medulla membranes, 2 nM [^3 H]AVP, read-out: Receptor Binding Results IC50 (nM) [^3 H]-AVP-V2
[4] = 1 h, @ 1,000 (nM), read-out: [^3 H]OT: percent inhibition of radioligand at the given concentration
[5] = read-out: Receptor Binding Results IC50 (nM) [^3 H]-AVP-V2

Compound | IC50 (uterine OT receptors) [nM] | IC50 (AVP-V1 sites; [1]) [nM] | IC50 (AVP-V2 sites; [3]) [nM] | also measured
CC[C@H](C)[C@@H]1NC(=O)[C@@H](Cc2ccc3ccccc3c2)NC(=O)[C@@H]2CCCN2C(=O)[C@@H](Cc2c[nH]cn2)NC(=O)[C@@H]2CCCCN2C(=O)[C@H]2CCCCN2C1=O [Example 12, Cyclo[D-2-naphthalalanyl-L-isoleucyl-D-pipecolyl-L-pipecolyl-D-histidyl-L-prolyl]] (cyclo(I[dPip][Pip][dH]P[d2Nal])) | 1.2 | > 1000 | – | IC50 (AVP-V2 sites; [2]): > 1000 nM
CC[C@H](C)[C@@H]1NC(=O)[C@@H](Cc2ccccc2)NC(=O)[C@@H]2CCCN2C(=O)[C@@H](Cc2ccccc2)N(C)C(=O)[C@@H]2CCCCN2C(=O)[C@@H](C)N(C)C1=O [Example 8, Cyclo[D-Phenylalanyl-L-isoleucyl-D-(N^α methyl)alanyl-L-pipecolyl-D-(N^α methyl)phenylanyl-L-prolyl]] (cyclo(I[dNMeA][Pip][dNMeF]P[dF])) | 850 | > 10000 | > 10000 | –
CC[C@H](C)[C@@H]1NC(=O)[C@@H](Cc2ccc3ccccc3c2)NC(=O)[C@@H]2CCCN2C(=O)[C@@H](Cc2c[nH]cn2)NC(=O)[C@H]2CN(C(=O)OCc3ccccc3)CCN2C(=O)[C@H]2CCCCN2C1=O [Example 160, c-[D-2-Naphthylalanyl-L-isoleucyl-D-pipecolyl-D-piperazin-2-yl-(4-carbobenzyloxy)-D-hystidyl-L-prolyl]] (cyclo(I[dPip][dPip(4-aza,4-Cbz)][dH]P[d2Nal])) | – | > 1000 | – | inhibition at 0.01 µM (uterine OT receptors; 1 h, @ 10 (nM), read-out: [^3 H]OT: percent inhibition of radioligand at the given concentration): 53%; inhibition at 1 µM (AVP-V2 sites; 0.5 h, @ 1,000 (nM), read-out: [^3 H]-AVP-V2: percent inhibition of radioligand at the given concentration): 66%
CC[C@H](C)[C@@H]1NC(=O)[C@@H](Cc2ccccc2)NC(=O)[C@@H]2CCCN2C(=O)[C@@H](CC(=O)OC(C)(C)C)NC(=O)[C@@H]2CCCCN2C(=O)[C@H]2CCCCN2C1=O [Example 179, c-[D-Phenylalanyl-L-isoleucinyl-D-pipecolyl-L-pipecolyl-D-(β-t-butyl)aspartyl-L-prolyl]] (cyclo(I[dPip][Pip][dD](OtBu)P[dF])) | – | > 10000 | > 10000 | inhibition at 1 µM (uterine OT receptors; [4]): 63%
CC[C@H](C)[C@@H]1NC(=O)[C@@H](Cc2c[nH]c3ccccc23)NC(=O)[C@@H]2CCCN2C(=O)[C@@H](Cc2ccccc2)N(C)C(=O)[C@H](CCCCNC(=O)OCc2ccccc2)NC(=O)[C@H]2CCCCN2C1=O [Example 35, Cyclo[D-tryptophanyl-L-isoleucyl-D-pipecolyl-L-(carbobenzyloxy)lysyl-D-(N^α Methyl)phenylalanyl-L-prolyl]] (cyclo(I[dPip]K(Cbz)[dNMeF]P[dW])) | > 100 | 10000 | 10000 | –
CC[C@H](C)[C@@H]1NC(=O)[C@@H](Cc2ccccc2)NC(=O)[C@@H]2CCCN2C(=O)[C@@H](Cc2ccccc2)NC(=O)[C@@H]2CNCCN2C(=O)[C@H]2CCCN2C1=O [Example 164, c-[D-Phenylalanyl-L-isoleucinyl-D-prolyl-L-piperazin-2-yl-D-phenylalanyl-L-prolyl]] (cyclo(I[dP][Pip(4-aza)][dF]P[dF])) | 1300 | 10000 | > 10000 | –
CC[C@H](C)[C@@H]1NC(=O)[C@@H](Cc2c[nH]c3ccccc23)NC(=O)[C@@H]2CCCN2C(=O)[C@@H](Cc2ccccc2)N(C)C(=O)[C@H](CCCN)NC(=O)[C@H]2CCCCN2C1=O [Example 40, Cyclo[D-tryptophanyl-L-isoleucyl-D-pipecolyl-L-ornithyl-D-(N^α Methyl)phenylalanyl-L-prolyl]] (cyclo(I[dPip][Orn][dNMeF]P[dW])) | – | > 1000 | – | inhibition at 0.1 µM (uterine OT receptors; 1 h, @ 100 (nM), read-out: [^3 H]OT: percent inhibition of radioligand at the given concentration): 59%; IC50 (AVP-V2 sites; [2]): > 1000 nM
c-[D-2-Trytophanyl-L-isoleucinyl-D-pipecolyl-L-piperazin-2-yl-(4-Cbz)-D-histidinyl(BOM)-L-prolyl] [Example 175] | – | – | – | [^3 H]OT: percent inhibition of radioligand at the given concentration (uterine OT receptors; @ 1,000 (nM)): 79%; [^3 H]-AVP-V1: percent inhibition of radioligand at the given concentration (AVP-V1 sites; @ 10,000 (nM)): 54%; [^3 H]-AVP-V2: percent inhibition of radioligand at the given concentration (AVP-V2 sites; @ 10,000 (nM)): 81%
CC[C@H](C)[C@@H]1NC(=O)[C@@H](Cc2c[nH]c3ccccc23)NC(=O)[C@@H]2CCCN2C(=O)[C@@H](Cc2c[nH]c3ccccc23)NC(=O)[C@H](CCCNC(=O)OCc2ccccc2)NC(=O)[C@H]2CCCCN2C1=O [Example 36, Cyclo[D-tryptophanyl-L-isoleucyl-D-pipecolyl-L-(carbobenzyloxy)ornithinyl-D-trytophanyl-L-prolyl]] (cyclo(I[dPip][Orn](Cbz)[dW]P[dW])) | > 100 | > 10000 | 10000 | –
CC[C@H](C)[C@@H]1NC(=O)[C@@H](Cc2ccccc2)NC(=O)[C@@H]2CCCN2C(=O)[C@@H](Cc2ccccc2)N(C)C(=O)[C@@H]2CN(C(=O)OCc3ccccc3)CCN2C(=O)[C@H]2CN(C(=O)OCc3ccccc3)CCN2C1=O [Example 86, c-[D-Phenylalanyl-L-isoleucinyl-D-piperazin-2-yl(4-Cbz)-L-piperazin-2-yl(4-Cbz)-D-(N^α -methyl)phenylalanyl-L-prolyl]] (cyclo(I[dPip(4-aza,4-Cbz)][X2][dNMeF]P[dF])) | – | > 10000 | > 10000 | inhibition at 1 µM (uterine OT receptors; [4]): 58%
CC[C@H](C)[C@@H]1NC(=O)[C@@H](Cc2ccccc2)NC(=O)[C@@H]2CCCN2C(=O)[C@@H](Cc2ccccc2)N(C)C(=O)[C@H](CC(N)=O)NC(=O)[C@H]2CCCCN2C1=O [Example 118, c-[D-Phenylalanyl-L-isoleucyl-D-pipecolyl-L-asparagyl-N-methyl-D-phenylalanyl-L-prolyl]] (cyclo(I[dPip]N[dNMeF]P[dF])) | 345 | > 10000 | 10000 | –
CC[C@H](C)[C@@H]1NC(=O)[C@@H](Cc2ccccc2)NC(=O)[C@@H]2CCCN2C(=O)[C@@H](Cc2ccccc2)NC(=O)[C@H](CC(N)=O)NC(=O)[C@@H](CCC(N)=O)NC1=O [Example 102] (cyclo([dF]I[dQ]N[dF]P)) | > 10000 | > 10000 | > 10000 | –
CN1C(=O)[C@@H]2CCCCN2C(=O)[C@H]2CCCCN2C(=O)[C@H](CCc2ccccc2)NC(=O)[C@@H](Cc2ccccc2)NC(=O)[C@@H]2CCCN2C(=O)[C@H]1Cc1ccccc1 [Example 135, c-[D-Phenylalanyl-L-homophenylalanyl-D-pipecolyl-L-pipecolyl-D-(N-methyl)phenylalanyl-L-prolyl]] (cyclo(P[dF][hPhe][dPip][Pip][dNMeF])) | 3400 | – | – | IC50 (AVP-V1 sites; read-out: Receptor Binding Results IC50 (nM) [^3 H]-AVP-V1): 8800 nM; IC50 (AVP-V2 sites; [5]): 5000 nM
CC[C@H](C)[C@@H]1NC(=O)[C@@H](Cc2c[nH]c3ccccc23)NC(=O)[C@@H]2CCCN2C(=O)[C@@H](Cc2ccccc2)N(C)C(=O)[C@H](CCCNC(=O)OC(C)(C)C)NC(=O)[C@H]2CCC=NN2C1=O [Example 126, c-[D-Tryptophanyl-L-isoleucyl-D-Δ-piperazyl (N^δ -Boc)-L-ornithyl-N-methyl-D-phenylalanyl-L-prolyl]] (cyclo(I[dPiz(1,6-dehydro)][Orn](Boc)[dNMeF]P[dW])) | 15 | > 1000 | – | IC50 (AVP-V2 sites; [2]): 1000 nM
CC[C@H](C)[C@@H]1NC(=O)[C@@H](Cc2cn(CC(=O)OC(C)(C)C)c3ccccc23)NC(=O)[C@@H]2CCCN2C(=O)[C@@H](Cc2ccccc2)N(C)C(=O)[C@@H]2CN(CC(=O)OC(C)(C)C)CCN2C(=O)[C@H]2CCCCN2C1=O [Example 182, c-[D-Tryptophanyl(t-butylacetyl)-L-isoleucinyl-D-pipecolyl-L-piperazin-2-yl(4-t-butylacetyl)-D-(N^α -Me)phenylalanyl-L-prolyl]] | – | > 10000 | > 10000 | inhibition at 1 µM (uterine OT receptors; [4]): 56%
CC[C@H](C)[C@@H]1NC(=O)[C@@H](Cc2ccccc2)NC(=O)[C@@H]2CCCN2C(=O)[C@@H](Cc2ccccc2)NC(=O)[C@@H]2CCCCN2C(=O)[C@H]2CN(C(=O)OCc3ccccc3)CCN2C1=O [Example 83, c-[D-Phenylalanyl-L-isoleucinyl-D-piperazin-2-yl-(4-Cbz)-L-pipecolyl-D-phenylalanyl-L-prolyl]] (cyclo(I[dPip(4-aza,4-Cbz)][Pip][dF]P[dF])) | 940 | 10000 | 10000 | –
CN1C(=O)[C@@H]2CCCCN2C(=O)[C@H]2CCCCN2C(=O)[C@H](Cc2ccccc2)NC(=O)[C@@H](Cc2ccccc2)NC(=O)[C@@H]2CCCN2C(=O)[C@H]1Cc1ccccc1 [Example 136, c-[D-Phenylalanyl-L-phenylalanyl-D-pipecolyl-L-pipecolyl-D-(N-methyl)phenylalanyl-L-prolyl]] (cyclo(F[dPip][Pip][dNMeF]P[dF])) | 410 | > 10000 | – | IC50 (AVP-V2 sites; [5]): 8000 nM
